Data on 1 substance can be found in patent US11717536B2, “Treatment for periodontitis” (THE UNIVERSITY OF MELBOURNE, priority 2017, dated 2023).

In one test the test system is Leptothrichia shahii. The test is described as follows: Clinical trial: plaque microbial analysis, Leptothrichia shahii. As to conditions: 18.8 mg CPP-ACP sugar-free gum, 20 min six times per day, 14 days, vs no gum chewing; supragingival plaque. The format is in vivo. The source says:
(§1) Following the completion of the examination and supragingival plaque collection, participants received a supragingival scaling, clean and prophylaxis of all their teeth. At the completion of the last examination for leg 3, each participant received a professional fluoride treatment.
(§2) Participants had all supragingival plaque collected from the buccal surfaces of their maxillary molars (teeth 17, 16, 26 & 27) with a sterile scaling instrument. The plaque samples from each tooth were placed in separate sterile tubes, to give four samples per participant.
(§3) Genomic DNA was extracted from the plaque using a combination of mechanical disruption of the cells via a Precellys homogeniser and the chemical extraction and purification of the genomic DNA via the PowerLyzer PowerSoil DNA Isolation Kit (MoBio). Quantitation of the extracted DNA was achieved using a Qubit dsDNA High Sensitivity Assay kit (ThermoFisher), before 5 ng DNA was used as template in a PCR reaction that amplified the V4 variable region of the 16S ribosomal RNA gene and individually barcoded the PCR product from each sample. The barcoded DNA was then sequenced using an Ion Torrent Personal Genome machine and Torrent Suite™ Software (ThermoFisher).
(§4) Analysis of the resulting sequence of the 16S ribosomal RNA gene enabled identification of the bacterial population present in each sample, down to the species level. […]

Another test deals with Leptotrichia buccalis. Briefly: Clinical trial: plaque microbial analysis, Leptotrichia buccalis. The format is in vivo. As to conditions: 18.8 mg CPP-ACP sugar-free gum, 20 min six times per day, 14 days, vs no gum chewing; supragingival plaque.
Excerpt: as §1, §2, §3, §4

In another test the test system is supragingival plaque. The test is described as follows: Clinical trial: plaque index (Turesky modification of the Quigley-Hein Index). The format is in vivo, human. As to conditions: CPP-ACP gum (18.8 or 56.4 mg), 14 days, vs no gum chewing; FIG. 1. The protocol:
Following the completion of the examination and supragingival plaque collection, participants received a supragingival scaling, clean and prophylaxis of all their teeth. At the completion of the last examination for leg 3, each participant received a professional fluoride treatment. Supragingival plaque was assessed using the Turesky modification of the Quigley-Hein Index (Turesky et al 1970 J Periodontol 41(1):41-43). This index is recognised as a reliable estimate of the tooth area covered by plaque and is frequently used for evaluating anti-plaque agents. The plaque index was obtained by adding the scores for each tooth and dividing by the number of surfaces examined. Plaque scores associated with unrestored labial, buccal and lingual surfaces of all teeth, except third molars were assessed. Each surface was assigned a score from 0 to 5.

In another test the test system is gingivitis. The test is described as follows: Clinical trial: gingivitis by Modified Gingival Index. The settings on record: CPP-ACP gum (18.8 and 56.4 mg), 14 days, vs no gum chewing; FIG. 2. The format is in vivo, human. As for the experimental part:
Following the completion of the examination and supragingival plaque collection, participants received a supragingival scaling, clean and prophylaxis of all their teeth. At the completion of the last examination for leg 3, each participant received a professional fluoride treatment. Gingivitis was measured using the Modified Gingival Index [Lobene et al 1986]. This index is a modification of the Loe and Silness Gingival Index and allows greater discrimination for mild and moderate gingivitis. In this study, gingival inflammation on a scale from 0 to 4 was scored for gingival tissues associated with four sites (buccal, lingual, mesial and distal) of all teeth.

Turning to “Casein phosphopeptide-amorphous calcium phosphate [CPP-ACP]”, the “% decrease in relative abundance, Leptothrichia shahii” value in the test with Leptothrichia shahii is 73% (p < 0.01). Besides, the “% decrease in relative abundance, Leptotrichia buccalis” value with Leptotrichia buccalis was 76% (p < 0.05). In addition, in the test on supragingival plaque, the plaque index entry is listed as “did not produce a significant change”. In addition, in the test on gingivitis, the gingival index entry is listed as “significant CPP-ACP dose-related improvement”.
